Laboratory results from patent publication US20090082203A1, “INSECTICIDAL BIS(SUBSTITUTED PHENYL)-1-{[4-(SATURATED HETEROCYCLYL-SUBSTITUTED)PHENYLMETHYL]- (4-PIPERIDYL)}METHANE DERIVATIVES” (priority 2004, published 2009).

Test system: tobacco budworm (Heliothis virescens [Fabricius])
Assay: surface-treated diet test against tobacco budworm
Format: in vivo
Conditions: 0.25 millimolar on the surface of the diet, second instar larvae, five-day exposure; for Percent Mortality: compared to the total number of insects infested; for Percent Growth Inhibition: inhibition of insect weight relative to untreated controls

Compound | Percent Mortality [%] | Percent Growth Inhibition [%]
OC(c1ccc(OC(F)(F)F)cc1)(c1ccc(OC(F)(F)F)cc1)C1CCN(Cc2ccc(OCC3OCCCO3)cc2)CC1 [Compound 199, bis[4-(trifluoromethoxy)-phenyl](1-{[4-(1,3-dioxan-2-ylmethoxy)phenyl]methyl}(4-piperidyl))methan-1-ol] | 100 | 100
bis(4-trifluoromethoxyphenyl])(1-{[4-(1,3-dioxan-2-ylmethoxy)phenyl]methyl}(4-piperidyl))methan-1-ol, N-oxide [Compound 200] | 100 | 100
